From patent US8354433B2, “Anti-inflammatory agents as virostatic compounds” (4SC AG, priority 2009, dated 2013)
pEC50, pIC50: −log10 of the molar value. Where two headings read alike, the source gives them in different places.

Tests used:
[1] = target: dihydroorotate dehydrogenase (DHODH) (Homo sapiens, UniProt Q02127); experiment: DHODH inhibition, in vitro assay; type: biochemical
HIV-191US005 = experiment: Anti-HIV efficacy in fresh human PBMCs (RT activity and p24 ELISA); type: cell-based, HIV-1; settings: Human immunodeficiency virus 1, PBMC, 168 h
[2] = tested on: HCV subgenomic replicon of genotype 1b; experiment: microbe, parasite or virus in culture; type: cell-based; settings: Hepatitis C virus, 24 h, read-out: Antiviral Activity EC50/nM
HBV = experiment: Anti-HBV evaluation with HepG2 2.2.15 cells (extracellular HBV DNA, qPCR); type: cell-based; settings: Hepatitis B virus, read-out: Antiviral Activity EC50
Experimental: Compounds were solubilized in DMSO in a concentration of 40 mM. (−)-2′-Desoxy-3′-thiacytidin (3TC) was used as the positive antiviral controls. The high-test concentrations were 10 μM for 4SC compounds and 1 μM for 3TC.
Briefly, HepG2-2.2.15 cells were plated in 96-well microtiter plates. Only the interior wells were utilized to reduce “edge effects” observed during cell culture; the exterior wells were filled with complete medium to help minimize sample evaporation. After 16-24 hours the confluent monolayer of HepG2-2.2.15 cells was washed and the medium was replaced with complete medium containing various concentrations of a test compound in triplicate. 3TC was used as the positive control, while media alone was added to cells as a negative control. Three days later the culture medium was replaced with fresh medium containing the appropriately diluted drug. Six days following the initial administration of the test compound, the cell culture supernatant was collected, treated with pronase and then used in a quantitative qPCR TaqMan assay. Antiviral activity was calculated from the reduction in HBV DNA levels (IC50). Cell Titer 96 ®AQueous One Solution Cell Proliferation kit (Promega, Madison, Wis.) was used to measure cell viability which is used to calculate toxicity (TC50). The therapeutic index (TI) was calculated as TC50/IC50

[3] = Cell viability in HepG2-2.2.15 cells (Cell Titer 96); type: cell-based; settings: human, six days, read-out: TC50
Experimental: Anti-HBV assay was performed as described in Korba, B F and Milman, G., 1991 (A cell culture assay for compound which inhibits hepatitis B virus replication. Antiviral Res. 15: 217-228) and in Korba, B F and Gerin, J L., 1992 (Use of a standardized cell culture assay to assess activities of nucleoside analogs again hepatitis B virus replication. Antiviral Res. 19: 55-70) with modifications to measure extracellular HBV DNA copy with real-time PCR (qPCR/TaqMan). Briefly, HepG2-2.2.15 cells were plated in 96-well microtiter plates. Only the interior wells were utilized to reduce “edge effects” observed during cell culture; the exterior wells were filled with complete medium to help minimize sample evaporation. After 16-24 hours the confluent monolayer of HepG2-2.2.15 cells was washed and the medium was replaced with complete medium containing various concentrations of a test compound in triplicate. 3TC was used as the positive control, while media alone was added to cells as a negative control. Three days later the culture medium was replaced with fresh medium containing the appropriately diluted drug. Six days following the initial administration of the test compound, the cell culture supernatant was collected, treated with pronase and then used in a quantitative qPCR TaqMan assay. Antiviral activity was calculated from the reduction in HBV DNA levels (IC50). Cell Titer 96 ®AQueous One Solution Cell Proliferation kit (Promega, Madison, Wis.) was used to measure cell viability which is used to calculate toxicity (TC50). The therapeutic index (TI) was calculated as TC50/IC50

RSV Strain Long = experiment: microbe, parasite or virus in culture; type: cell-based; settings: human respiratory syncytial virus, Vero, read-out: Antiviral Activity EC50
DENV Type 2 (New Guinea) = experiment: microbe, parasite or virus in culture; type: cell-based; settings: Dengue virus, Vero C1008, read-out: Antiviral Activity EC50
YFV Strain 17D = experiment: microbe, parasite or virus in culture; type: cell-based; settings: Yellow fever virus, Vero, read-out: Antiviral Activity EC50
WNV Strain NY-99 = experiment: microbe, parasite or virus in culture; type: cell-based; settings: West Nile virus, Vero, read-out: Antiviral Activity EC50
Influenza Virus (H7N7) = experiment: microbe, parasite or virus in culture; type: cell-based, avian influenza virus (Fowl Plaque Virus; settings: unidentified influenza virus, H7N7, A549, 16 h; for inhibition at 30 µM: read-out: Antiviral Activity % Inhibition
HCMV AD 169-GFP = experiment: microbe, parasite or virus in culture; type: cell-based, Human Cytomegalovirus; settings: Human betaherpesvirus 5, Fibroblast, 168 h, read-out: Antiviral Activity EC50
in vitro [4] = settings: human
human PBMCs = experiment: MTS cytotoxicity in human PBMCs; settings: seven days
[5] = tested on: ET cell line (luc-ubi-neo/ET), Huh7; experiment: CytoTox-1 cytotoxicity in ET cells; settings: 24 h, cell unit μM
Ebola Virus = experiment: microbe, parasite or virus in culture; type: cell-based; settings: Zaire ebolavirus, Vero, read-out: Antiviral Activity % Inhibition
in vitro [6] = settings: African green monkey
in vitro [7] = settings: African green monkey; remark: listed apart in the source
in vitro [8] = settings: African green monkey; remark: listed apart in the source
Vero cells [9] = settings: African green monkey
Vero cells [10] = settings: African green monkey; remark: listed apart in the source
Vero cells [11] = settings: African green monkey; remark: listed apart in the source
[12] = Table 3, read-out: DHODH IC50/nM
[13] = Table 4, read-out: DHODH IC50/nM
[14] = Table 5, read-out: DHODH IC50/nM
[15] = Table 6, read-out: DHODH IC50/nM
[16] = Table 7, read-out: DHODH IC50/nM
[17] = Table 8, read-out: DHODH IC50/nM
[18] = Endpoint RT, seven days, read-out: EC50/nM
[19] = Endpoint RT, seven days, read-out: EC90/nM
[20] = Endpoint p24, seven days, read-out: EC50/nM
[21] = Endpoint p24, seven days, read-out: EC90/nM
[22] = 144 h, HepG2 2.2.15 cells, HBV DNA, six days

Chain of dihydroorotate dehydrogenase (DHODH) (Q02127 whole entry): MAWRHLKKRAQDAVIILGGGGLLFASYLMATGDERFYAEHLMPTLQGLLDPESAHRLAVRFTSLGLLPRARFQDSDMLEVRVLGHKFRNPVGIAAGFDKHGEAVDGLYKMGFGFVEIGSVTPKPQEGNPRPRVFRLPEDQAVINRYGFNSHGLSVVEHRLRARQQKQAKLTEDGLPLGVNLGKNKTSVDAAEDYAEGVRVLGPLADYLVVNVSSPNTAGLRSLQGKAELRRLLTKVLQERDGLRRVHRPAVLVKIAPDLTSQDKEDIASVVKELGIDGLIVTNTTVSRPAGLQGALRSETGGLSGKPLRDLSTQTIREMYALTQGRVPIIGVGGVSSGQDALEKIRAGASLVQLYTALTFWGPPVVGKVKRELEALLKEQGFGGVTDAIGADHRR

Row | SMILES | IC50 [1, 12] [nM] | IC50 [1, 13] [nM] | IC50 [1, 14] [nM] | IC50 [1, 15] [nM] | IC50 [1, 16] [nM] | IC50 [1, 17] [nM] | EC50 (HIV-191US005; [18]) [nM] | EC90 (HIV-191US005; [19]) [nM] | EC50 (HIV-191US005; [20]) [nM] | EC90 (HIV-191US005; [21]) [nM] | EC50 [2] [nM] | pEC50 (HBV; [22]) | CC50 at 6 days [3] [nM] | pEC50 (RSV Strain Long) | pEC50 (DENV Type 2 (New Guinea)) | pEC50 (YFV Strain 17D) | pEC50 (WNV Strain NY-99) | pEC50 (Influenza Virus (H7N7)) | TC50/nM (human PBMCs) [nM] | IC50 ([1]; DHODH IC50/nM, Table 1) [nM] | EC50 (RSV Strain Long) [µg/mL] | EC50 (DENV Type 2 (New Guinea)) [µg/mL] | EC50 (YFV Strain 17D) [µg/mL] | EC50 (WNV Strain NY-99) [µg/mL] | further results
1 | O=C(Nc1c(F)c(F)c(-c2cccc(OC(F)(F)F)c2)c(F)c1F)c1ccsc1C(=O)O [Compound 1, 3-(2,3,5,6-Tetrafluoro-3′-trifluoromethoxy-biphenyl-4-ylcarbamoyl)-thiophene-2-carboxylic acid] | < 20 | < 20 | < 20 | < 20 | < 20 | < 20 | 120 | 300 | 170 | 300 | 23 | 5.32 | > 10000 | 5.68 | 7.14 | 6.63 | 6.13 | ~5.82 | >100000 | – | – | – | – | – | pIC50 [1]: > 7.70; IC50 ([1]; Table 10, read-out: DHODH IC50/nM): < 20 nM; IC50 ([1]; read-out: DHODH IC50/nM, Table 2): < 20 nM; pEC50 (HCMV AD 169-GFP): 6.11; CC50 at 7 days (in vitro [4]): > 10000 nM; TC50 [5]: >100 µM
2 | O=C(O)C1=C(C(=O)Nc2ccc(OCc3c(F)cccc3Cl)c(Cl)c2)CCC1 [Compound 3, 2-[3-Chloro-4-(2-chloro-6-fluoro-benzyloxy)-phenylcarbamoyl]-cyclopent-1-enecarboxylic acid] | < 20 | < 20 | < 20 | < 20 | – | – | 190 | 700 | 190 | 630 | 500 | < 5.00 | > 10000 | < 5.00 | 7.08 | 5.66 | < 5.00 | – | 44800 | < 20 | – | – | – | – | IC50 ([1]; DHODH IC50/nM, Table 7): < 20 nM; IC50 ([1]; Table 2, read-out: DHODH IC50/nM): < 20 nM
3 | O=C(O)C1=C(C(=O)Nc2c(F)c(F)c(-c3cccc(OC(F)(F)F)c3)c(F)c2F)CCC1 [Compound 4, 2-(2,3,5,6-Tetrafluoro-3′-trifluoromethoxy-biphenyl-4-ylcarbamoyl)-cyclopent-1-enecarboxylic acid] | – | – | < 20 | < 20 | – | < 20 | 60 | 210 | 80 | 240 | 80 | – | > 10000 | 5.67 | 7.17 | 6.17 | < 5.00 | ~5.52 | 42400 | < 20 | – | – | – | – | IC50 ([1]; DHODH IC50/nM, Table 2): < 20 nM; IC50 ([1]; DHODH IC50/nM, Table 3): < 20 nM; IC50 ([1]; DHODH IC50/nM, Table 4): < 20 nM; IC50 ([1]; DHODH IC50/nM, Table 7): < 20 nM; IC50 ([1]; Table 9, read-out: DHODH IC50/nM): < 20 nM; pEC50 (HBV; HepG2 2.2.15, 144 h): < 5.00; inhibition at 30 µM (Influenza Virus (H7N7)): > 90%; inhibition at 31.6 µM (Ebola Virus): > 90%; inhibition at 100 µM (Ebola Virus): > 98%
4 | COc1cccc(-c2ccc(NC(=O)C3=C(C(=O)O)CCC3)c(F)c2)c1 [Compound 6, 2-(3-Fluoro-3′-methoxy-biphenyl-4-ylcarbamoyl)-cyclopent-1-enecarboxylic acid] | – | – | – | – | – | – | – | – | – | – | 4640 | – | – | – | – | – | – | – | >100000 | – | – | – | – | – | EC50 (HIV-191US005; read-out: EC50/nM, Endpoint RT, seven days): 2190 nM; EC50 (HIV-191US005; read-out: EC50/nM, Endpoint p24, seven days): 1970 nM; EC90 (HIV-191US005; read-out: EC90/nM, Endpoint RT, seven days): 6110 nM; EC90 (HIV-191US005; read-out: EC90/nM, Endpoint p24, seven days): 6250 nM; inhibition at 30 µM (Influenza Virus (H7N7)): > 80%; inhibition at 31.6 µM (Ebola Virus): 90%; inhibition at 100 µM (Ebola Virus): > 98%
5 | O=C(Nc1c(F)cc(-c2cccc(OC(F)(F)F)c2)cc1F)c1ccsc1C(=O)O [Compound 17, 3-(3,5-difluoro-3′-(trifluoromethoxy)biphenyl-4-ylcarbamoyl)thiophene-2-carboxylic acid] | < 20 | < 20 | – | < 20 | < 20 | < 20 | – | – | – | – | – | 5.19 | > 10000 | < 5.00 | < 5.00 | 5.65 | 5.19 | ~5.52 | – | – | – | – | – | – | IC50 ([1]; DHODH IC50/nM, Table 5): < 20 nM; CC50 (in vitro [6]): > 10000 nM; CC50 (in vitro [7]): > 10000 nM; CC50 (in vitro [8]): > 10000 nM
6 | NC(=O)c1ncn([C@@H]2O[C@H](CO)[C@@H](O)[C@H]2O)n1 [Ribavirin, reference compound] | – | – | – | – | – | – | – | – | – | – | – | – | – | – | – | – | – | – | – | – | 7.95 | 26.5 | 7.33 | 22 | TC50 (Vero cells [9]): >100 µg/mL; TC50 (Vero cells [10]): >100 µg/mL; TC50 (Vero cells [11]): >100 µg/mL
